Experimental data as given in ChEMBL document CHEMBL1152680, “Peptide inhibitors of HIV-1 integrase: from mechanistic studies to improved lead compounds” (Bioorg Med Chem, 2009).
The source made the active and inactive calls. The rule behind the calls is not given here.

Tests used:
[1] = tested on: Human immunodeficiency virus 1; test: Antiviral activity against HIV1 infected in human TZM-bl cells assessed as inhibition of viral replication at 62.5 uM treated 2 hrs before viral infection measured after 2 days by MAGI assay; format: functional; settings: Human immunodeficiency virus 1, TZM-bl
[2] = target: Human immunodeficiency virus type 1 integrase (Human immunodeficiency virus 1) (UniProt Q7ZJM1); test: Binding affinity to HIV1 integrase DNA binding domain (240-260) by ELISA
Human immunodeficiency virus type 1 integrase (Human immunodeficiency virus 1), sequence (Q7ZJM1 as listed by the source): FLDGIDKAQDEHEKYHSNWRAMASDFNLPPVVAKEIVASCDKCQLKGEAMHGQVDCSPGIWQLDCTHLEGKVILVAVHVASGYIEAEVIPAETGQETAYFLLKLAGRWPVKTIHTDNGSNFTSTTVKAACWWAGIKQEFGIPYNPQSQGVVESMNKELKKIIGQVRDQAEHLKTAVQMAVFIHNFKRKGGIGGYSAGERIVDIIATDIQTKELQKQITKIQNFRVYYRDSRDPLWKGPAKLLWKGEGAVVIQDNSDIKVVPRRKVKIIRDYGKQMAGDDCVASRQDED

[3] = Solubility of the compound; format: physicochemical
[4] = target: Human immunodeficiency virus type 1 integrase (Human immunodeficiency virus 1) (UniProt Q7ZJM1); test: Binding affinity to HIV1 integrase catalytic core domain (118-132) by ELISA
[5] = target: T1, Human immunodeficiency virus type 1 integrase (Human immunodeficiency virus 1, UniProt Q7ZJM1); test: Binding affinity to tetrameric histidine-tagged HIV1 full length integrase by fluorescence anisotropy
T1 sequence (Q7ZJM1 whole entry): as the sequence (Q7ZJM1 as listed by the source) above

[6] = tested on: Human immunodeficiency virus 1; test: Antiviral activity against HIV1 infected in human SupT1 cells assessed as change in total amount of viral DNA at 0.5 to 62.5 uM treated 2 hrs before viral infection measured after 24 hrs by real time PCR analysis; format: functional, organism-based; settings: SUP-T1
[7] = target: Human immunodeficiency virus type 1 integrase (Human immunodeficiency virus 1) (UniProt Q7ZJM1); test: Inhibition of viral DNA binding to tetrameric histidine-tagged HIV1 full length integrase treated for 20 mins before addition of fluorescein-labeled viral LTR DNA by fluorescence anisotropy
[8] = target: Human immunodeficiency virus type 1 integrase (Human immunodeficiency virus 1) (UniProt Q7ZJM1); test: Inhibition of histidine-tagged HIV1 full length integrase assessed as inhibition of viral DNA integration into human SupT1 cellular genome at 62.5 uM treated 2 hrs before viral infection measured after 24 hrs by real time PCR analysis; format: cell-based
[9] = target: Human immunodeficiency virus type 1 integrase (Human immunodeficiency virus 1) (UniProt Q7ZJM1); test: Binding affinity to HIV1 integrase catalytic core domain (94-112) by ELISA
[10] = target: Human immunodeficiency virus type 1 integrase (Human immunodeficiency virus 1) (UniProt Q7ZJM1); test: Inhibition of integration activity of histidine-tagged HIV1 full length integrase at 76 uM
[11] = target: Human immunodeficiency virus type 1 integrase (Human immunodeficiency virus 1) (UniProt Q7ZJM1); test: Binding affinity to HIV1 integrase catalytic core domain (70-84) by ELISA
[12] = target: Human immunodeficiency virus type 1 integrase (Human immunodeficiency virus 1) (UniProt Q7ZJM1); test: Binding affinity to tetrameric histidine-tagged HIV1 full length integrase by analytical gel filtration
[13] = tested on: Human immunodeficiency virus 1; test: Antiviral activity against HIV1 infected in human TZM-bl cells assessed as inhibition of viral replication treated 2 hrs before viral infection; format: functional, organism-based
[14] = target: Human immunodeficiency virus type 1 integrase (Human immunodeficiency virus 1) (UniProt Q7ZJM1); test: Inhibition of viral DNA binding to dimeric histidine-tagged HIV1 full length integrase treated for 20 mins before addition of fluorescein-labeled viral LTR DNA by fluorescence anisotropy
[15] = target: Human immunodeficiency virus type 1 integrase (Human immunodeficiency virus 1) (UniProt Q7ZJM1); test: Inhibition of integration activity of histidine-tagged HIV1 full length integrase at enzyme to peptide molar ratio of 1:50; settings: concentration not given here
[16] = Cellular uptake in nucleus of human HeLa cells at 10 uM after 2 hrs by confocal microscopy; format: ADME, cell-based
[17] = target: T1, Human immunodeficiency virus type 1 integrase; test: Binding affinity to histidine-tagged HIV1 full length integrase by fluorescence anisotropy
[18] = Cellular uptake in cytoplasm of human HeLa cells at 10 uM after 2 hrs by confocal microscopy; format: ADME, cell-based
[19] = target: Human immunodeficiency virus type 1 integrase (Human immunodeficiency virus 1) (UniProt Q7ZJM1); test: Ratio of compound to IN1 activity for inhibition of viral DNA binding to histidine-tagged HIV1 full length integrase
[20] = target: Human immunodeficiency virus type 1 integrase (Human immunodeficiency virus 1) (UniProt Q7ZJM1); test: Binding affinity to dimeric histidine-tagged HIV1 full length integrase by analytical gel filtration

Substance: H-WQCLTLTHRGFVLLTITVLR-OH
- inhibition at 62.5 µM [1]: 70%
- Activity [2]: Active
- solubility [3]: Soluble
- Activity [4]: Active
- Kd [5]: 8700 nM
- Activity [6]: inactive
- inhibition [7]: Active
- inhibition [8]: 63%
- Activity [9]: Active
- inhibition [10]: 77%
- Activity [11]: Active
- Activity [12]: Active
- inhibition [13]: Dose-dependent effect

Substance: H-WQSLTLTHRG-OH
- inhibition at 62.5 µM [1]: 60%
- Activity [6]: inactive
- inhibition [14]: Active
- inhibition [15]: 62%
- inhibition [8]: 51%
- Drug uptake [16]: Active
- Kd ([17]; read-out: Kd): 1200 nM
- Drug uptake [18]: Active
- inhibition [13]: Dose-dependent effect

Substance: H-WFVLLTITVLR-OH [WFVLLTITVLR]
- inhibition at 62.5 µM [1]: 29%
- Activity [2]: Active
- Activity [4]: Active
- Activity [6]: inactive
- inhibition [14]: Active
- inhibition [15]: 24%
- inhibition [8]: 23%
- Drug uptake [16]: Active
- Kd ([17]; read-out: Kd): 1800 nM
- Ratio [19]: 2
- Drug uptake [18]: Active
- inhibition [13]: Dose-dependent effect
- Activity [20]: Active

Substance: H-WITVLR-OH
- inhibition [14]: Active
- Kd [17]: Not Active
- inhibition [13]: Dose-dependent effect

Substance: H-WQCLTLTHRG-OH
- inhibition at 62.5 µM [1]: 68%
- Activity [4]: Active
- Activity [6]: inactive
- inhibition [14]: Active
- inhibition [8]: 64%
- Drug uptake [16]: Active
- Kd ([17]; read-out: Kd): 1700 nM
- Activity [9]: Active
- inhibition [10]: 73%
- Ratio [19]: 2
- Drug uptake [18]: Active
- inhibition [13]: Dose-dependent effect
- Activity [20]: Active
